According to patent US7462605B2, “Phosphoramidate compounds and methods of use” (Celmed Oncology (USA), Inc., priority 2002, dated 2008):
“Also recorded” adds a separate entry of the source. Where two headings read alike, the source gives them in different places.

Experiments:
[1] = molecular target: T1, TS in intact RKO cells (Homo sapiens, UniProt P04818); assay: TS activity in intact cells by tritium release; type: cell-based; details: release of [^3H]2O from 5-[^3H]deoxyuridine
T1 construct: endogenous in cells; host or cells: RKO cells
T1 sequence (P04818 2-313 limits assumed): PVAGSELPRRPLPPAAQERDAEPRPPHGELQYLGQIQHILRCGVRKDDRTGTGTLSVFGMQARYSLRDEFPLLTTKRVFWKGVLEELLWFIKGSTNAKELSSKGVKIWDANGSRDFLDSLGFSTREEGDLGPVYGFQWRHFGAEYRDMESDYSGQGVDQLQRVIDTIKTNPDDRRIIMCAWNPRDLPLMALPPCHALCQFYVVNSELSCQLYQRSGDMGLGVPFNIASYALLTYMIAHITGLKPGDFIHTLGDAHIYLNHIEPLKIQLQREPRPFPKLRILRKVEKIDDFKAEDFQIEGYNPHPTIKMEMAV
Experimental: TS activity was measured in intact RKO cells by release of [^3H]2O from 5-[^3H]deoxyuridine as described in Materials and Methods. NB1011 was washed out of cells by replacing with fresh media, incubating for 60 minutes at 37 ° C., then repeating this procedure. Control and untreated cells were subjected to the same washing procedure.
TS Activity Assay by Tritium Release from dUMP-^3H. Cells were plated in 24 well plates to a density of 30,000 cells/plate and incubated for 16 hours to allow adhesion to the plastic surface of the plate.
Immediately prior to the thymidylate synthase assay, the media was replaced with RPMI+10% dialyzed fetal calf serum. 0.5 μCi of 5-[^3H]deoxyuridine was added to each well, and plates were incubated for 60 minutes at 37° C. without additional CO2. [^3H] release was measured by adsorbing 5-[^3H]deoxyuridine to activated charcoal (10% in 1×PBS) for 5 minutes at room temperature. After centrifugation for 5 minutes at 13,000 RPM, the amount of [^3H] in the supernatant was determined by liquid scintillation counting.
The results described above indicate that BVdUMP, generated intracellularly from NB1011, is unlikely to inactivate TS during its transformation to product(s). […] In these experiments exogenous 5-(3H) deoxyuridine is added to cell culture medium and the release of tritiated water is monitored (Carreras, C. W. and Santi, D. V. (1995) and Roberts (1966)). […]

[2] = test system: CCD18co normal colon epithelial cells; assay: alamarBlue growth inhibition, CCD18co; type: cell-based, human
Experimental: (§1) Growth Inhibition Studies. Cells growing exponentially were transferred to 384-well flat bottom tissue culture plates. All cell types were plated at a density of 500 cells per well in 25 μL of complete medium (RPMI 1640+10% fetal bovine serum+antibiotics/antimycotics). After 24 hours (day 0), 25 μL of complete medium containing the experimental compounds over the dose range of 10^ñ3 to 10^ñ10 M were added in triplicate. […] 5 μL of the redox indicator, alamarBlue, was added to each well (10% v/v). After 4 hours incubation at 37° C., fluorescence was monitored at 535 nm excitation and 595 nm emission.
(§2) Concentration vs. relative fluorescence units (RFU) were plotted, and sigmoid curves were fit using the Hill equation.

[3] = test system: DET551 (Skin) normal cells; assay: alamarBlue growth inhibition, DET551; type: cell-based, human; details: 120 hours
Experimental: as §1, §2

[4] = test system: NHDF (Skin) normal cells; assay: alamarBlue growth inhibition, NHDF; type: cell-based, human; details: 120 hours
Experimental: as §1, §2

[5] = test system: MRC9 (Lung) normal cells; assay: alamarBlue growth inhibition, MRC9; type: cell-based, human; details: 120 hours
Experimental: as §1, §2

[6] = test system: NHLF (Lung) normal cells; assay: alamarBlue growth inhibition, NHLF; type: cell-based, human; details: 120 hours
Experimental: as §1, §2

[7] = test system: NPRSC (Prostate) normal cells; assay: alamarBlue growth inhibition, NPRSC; type: cell-based, human; details: 120 hours
Experimental: as §1, §2

[8] = test system: COLO320 (Colon) tumor cells; assay: alamarBlue growth inhibition, COLO320; type: cell-based, human; details: 120 hours
Experimental: as §1, §2

[9] = test system: SW620 (Colon) tumor cells; assay: alamarBlue growth inhibition, SW620; type: cell-based, human; details: 120 hours
Experimental: as §1, §2

[10] = test system: MDAMB468 (Breast) tumor cells; assay: alamarBlue growth inhibition, MDAMB468; type: cell-based, human; details: 120 hours
Experimental: as §1, §2

[11] = test system: SOAS2 (Bone) tumor cells; assay: alamarBlue growth inhibition, SOAS2; type: cell-based, human; details: 120 hours
Experimental: as §1, §2

[12] = test system: A431 (Skin) tumor cells; assay: alamarBlue growth inhibition, A431; type: cell-based, human; details: 120 hours
Experimental: as §1, §2

[13] = test system: MCIxc (Brain) tumor cells; assay: alamarBlue growth inhibition, MCIxc; type: cell-based, human; details: 120 hours
Experimental: as §1, §2

[14] = test system: normal and tumor cell types; assay: cells; details: for IC50: read-out: IC50 (μM), Average
Experimental: Growth Inhibition Studies. Cells growing exponentially were transferred to 384-well flat bottom tissue culture plates. All cell types were plated at a density of 500 cells per well in 25 μL of complete medium (RPMI 1640+10% fetal bovine serum+antibiotics/antimycotics). After 24 hours (day 0), 25 μL of complete medium containing the experimental compounds over the dose range of 10^ñ3 to 10^ñ10 M were added in triplicate. Drug exposure time was 120 hours (day 5), after which growth inhibition was assayed. 5 μL of the redox indicator, alamarBlue, was added to each well (10% v/v). After 4 hours incubation at 37° C., fluorescence was monitored at 535 nm excitation and 595 nm emission.
as §2
Assays were carried out as described in Methods, above. Therapeutic index is calculated as the ratio of the average IC50 for normal cells to the average IC50 for tumor cells. All assays were done at least three times.

[15] = test system: C/HT1080 cells; assay: alamarBlue cytotoxicity, control-transfected HT1080; type: cell-based, human; details: C/HT1080, TS Level 100%
Experimental: Cell lines and transfection. HT1080 cells were grown in PRM11640 medium supplemented with 10% fetal calf serum, and transfected with GFP-TS expression vector. 48 hours after, transfection cells were tripsinized and replated in culture medium containing 750 μg/ml G418. After selection with G418 for two weeks, surviving cells were sorted based upon fluorescence expression. One clone with higher fluorescence expression (named as TSH/HT1080) and one clone with lower fluorescence expression (named as TSL/HT1080) were selected and expanded into cells lines. The stable HT1080 cells transfected with pEGFP-C3 were used as control.
Construction of GFP-TS expression vector. […] The cDNA was cloned into HindIII and KpnI sites of mammalian expression vector pEGFP-C3 (Clontech Laboratories. Inc., Palo Alto, Calif.), in-frame with GFP sequence. The cDNA insert was confirmed by DNA sequencing.
Growth Inhibition Studies. Cells growing exponentially were transferred to 384-well flat bottom tissue culture plates. All cell types were plated at a density of 500 cells per well in 25 μL of complete medium (RPMI 1640+10% fetal bovine serum+antibiotics/antimycotics). […] After 4 hours incubation at 37° C., fluorescence was monitored at 535 nm excitation and 595 nm emission.
as §2

[16] = test system: H630 colon cancer cells, TDX selection; assay: alamarBlue cytotoxicity, H630 TDX-selected; type: cell-based, human; details: Drug Selection TDX, read-out: NB1011-IC50
Experimental: as §1, §2
(§3) Cells were grown and characterized as described above. TS expression level is relative to CCD18co, a normal colon epithelial cell line. Tritium release is background substracted as described in Methods. ND=Not detectable above background.

[17] = test system: N1S1 cells, 5FU selection; assay: alamarBlue cytotoxicity, N1S1 5FU-selected; type: cell-based; details: N1S1, Drug Selection 5FU; read-out: NB1011-IC50
Experimental: as §1, §2, §3

With “5-(2-Bromovinyl)-2′-deoxyuridine phenyl N-methoxy-L-alaninyl phosphoramidate [NB1011]” the “effect on TS activity in intact cells after wash-out” value [1] was “completely reversible; also recorded: does not irreversibly inactivate the TS enzyme”, the IC50 ([2]; Normal Cells: CCD1800 (Colon), alamarBlue, 120 hours) was 562 µM and the IC50 ([2]; normal colon epithelial cells (CCD18co), comparison with 5FUdR) was > 2500 µM. For the same substance, the IC50 [3] was 262 µM, the IC50 [4] was 359 µM and the IC50 [5] was 303 µM. The IC50 [6] was 139 µM, the IC50 [7] was 369 µM and the IC50 [8] was 401 µM. The IC50 [9] was 374 µM, the IC50 [10] was 172 µM and the IC50 [11] was 232 µM. For the same substance, the IC50 [12] was 266 µM, the IC50 [13] was 61 µM and the “improvement in therapeutic index as compared with 5-FU” value ([14]; (2)×(3)) was 6 fold. For the same substance, the “more cytotoxic to tumor cells vs. normal cells” value ([14]; overall, panel) was “about 2 fold”, the IC50 ([14]; average of the 11 normal cell types) was 561 µM and the IC50 ([14]; average of the 21 tumor cell lines) was 288 µM. The IC50 [15] was 320 µM, the IC50 [16] was 2.3 µM and the IC50 [17] was 204 µM.
